Several values for one entry are separate records, joined by “and”; a condition that tells them apart may be missing. Equal values may be shown once. Read-outs that look alike come from different tables or passages of the source.
Tests used:
[1] = tested on: foldon homo-trimer; assay: ITEM-FIVE: collision-induced dissociation of foldon homo-trimer 5+ ions in the gas phase (nanoESI-MS); type: binding, T4 phage; settings: for k#m0g (apparent kinetic constant of trimer dissociation) / TambΔS#m0g / ΔG#m0g (pseudo thermodynamic activation free energy of trimer dissociation) / ΔH#m0g (activation enthalpy of trimer dissociation): gas phase, two measurement series averaged; for k#m0g (apparent kinetic constant of trimer dissociation): CID ΔCV 0-50 V, linear extrapolation to ambient temperature (298 K), dimensionless, sprayed from 50 mM ammonium acetate pH 5.5, 0.1 µg/µl; for TambΔS#m0g: Tamb 298 K; for ΔG#m0g (pseudo thermodynamic activation free energy of trimer dissociation) / ΔH#m0g (activation enthalpy of trimer dissociation): extrapolated to ambient temperature
Description: ITEM-FIVE investigations started with electrospraying foldon-containing solutions and by setting the first mass filter (quadrupole) to selecting only foldon trimer ions for transmission into the instrument’s collision cell.
After mass filtering, this was the only remaining ion signal in the mass spectrum because the energy in the collision cell was too low to initiate complex dissociation. […] At 20 V the trimer ion signals were barely visible (Fig. 2C), leaving mass spectra with dominating ion signals of dimers and monomers. Finally, at 40 V, the only ion signals which remained visible in the mass spectra were those of the monomers (Fig. 2D). Independent measurement series of complex dissociations were recorded twice for each foldon variant (Tables S1–S7). […] Plotting the courses of normalized educt ion intensities as functions of ∆CV provided sigmoidal shaped curves with Boltzmann characteristics for all foldons (Fig. 3).
Approximating the tangent lines at the ∆CV50 values of all the Boltzmann curves (R^2 = 0.999 for all foldons; cf. Table S8) and upon transforming ∆CV values to reaction temperatures (applying formula (5) see Supplement) enabled drawing of Arrhenius plots (Fig. S11, applying formulas (1) and (5)) and Ellingham diagrams (Fig. S12, formulas (3), (4) and (5)). The values were calculated from formulas (2), (5) and (6). […] Likewise, the pseudo thermodynamic activation free energy values, followed in all Ellingham diagrams courses with almost parallel lining up of linear courses of all foldons when plotted against (according to formula (4)).
Mass spectra were acquired on a Synapt G2-S instrument (Waters MS-Technologies, Wilmslow, UK). Instrument calibration was performed with a sodium iodide solution with a concentration of 2 mg/ml, dissolved in isopropanol/water (50:50 v/v).
All mass spectra were acquired in positive ion mode applying a mass window from m/z 400 to m/z 8000. NanoESI measurements were performed with the following instrument settings: capillary voltage: 1.0–1.2 kV, sample cone voltage: 13 V source offset: 12 V, source gas flow: 0.0 ml/min, cone gas flow: 9 l/h, helium cell gas flow: 40 ml/min, IMS gas flow: 20.0 ml/min, trap collision voltage for nanoESI-MS analysis: 0–2 V, source temperature: 40 °C; trap gas flow: 2.0 ml/min, reflectron grid 1.449 kV. Data acquisition and processing were done with the MassLynx software version 4.1 (Waters MS-Technologies, Wilmslow, UK)[31].
ITEM-FIVE experiments started with isolating the quintuply charged foldon trimer ion signal as the respective precursor ion[31]. Then the collision cell voltage difference (ΔCV) in the trap cell was increased stepwise from: 0 V, to 2 V, 5 V, 7 V, 10 V, 12 V, 15 V, 20 V, 30 V, 40 V, and 50 V. At each ΔCV setting mass spectra were accumulated for 2 min and scans were combined using the MassLynx Software version 4.1 (Waters MS Technologies, Wilmslow, UK). Two measurement series were recorded. Mass spectrometry data have been deposited at the ProteomeXchange Consortium’s PRIDE repository[62] with the dataset identifier PXD064233.
From each mass spectrum one list with mass/intensity pair data was copied into a text file and then imported into the OriginPro 2017G software (64 bit) (OriginLab Corporation, Northampton, MA, USA) where it was further processed to eliminate baseline and noise signals. Then, the processed mass list data were converted to a Microsoft Access 2010 database from which data of pre-defined target masses were extracted with a threshold of ± 0.5 Da. Target masses were selected to represent the most characteristic ion signals in the respective mass spectrum: educts were represented by the trimer’s 5 + ion signal and products by the dimer’s 3 + ion signal and the monomer’s 2 + ion signal. […] Ion signal intensities were normalized by setting the sum of all remaining target mass ion signals to 100%. […]

[2] = Travelling wave ion mobility: drift times and CCS of homo-trimer 5+ ions; type: physicochemical; settings: TWIM, nitrogen; for TWCCSN2 exp. (mean): 5+ trimer ion; for TWCCSN2 exp. (mean) / dt (mean): 50 mM ammonium acetate pH 5.5, c = 0.1 mg/ml, mean of two independent measurements; for dt (mean): centroided 5+ trimer ion signal; for FWHM: drift time peak of 5+ trimer ion, unit assumed
Method: Ion mobility measurements were performed using a Synapt G2-S instrument (Waters Corporation, Wilmslow, UK) equipped with a travelling wave ion mobility (TWIM) cell. Nitrogen was the neutral buffer gas for all TWIM experiments. All mass spectra were acquired in positive ion mode applying a mass window from m/z 400 to m/z 8000. Instrument settings were as follows: capillary voltage: 1.2 kV, sample cone voltage: 13 V, source offset: 12 V, source temperature: 40 °C, trap collision energy: 2.0 V, pusher: 1900 V, puller: 1370 V, reflectron grid 1.451 kV, source gas flow: 0.0 ml/min, cone gas flow: 9 l/h, nano flow gas pressure: 0.2 bar, helium cell gas flow: 140 ml/min, IMS gas flow: 50.0 ml/min, trap collision voltage: 2 V, trap gas flow: 5.0 ml/min, IMS wave velocity 1600 m/s, wave height: 30.0 V. Data acquisition, arrival time determinations, and processing were done with the MassLynx software version 4.1 (Waters MS-Technologies, Wilmslow, UK[31]. TWIM calibration was done with bovine serum albumin, myoglobin, cytochrome c, ubiquitin, and insulin using published CCS values (Table S18)[66],[67] and applying the published algorithms for logarithmic fits[66],[68] as well as for linear fits[69].

[3] = Travelling wave ion mobility CCS calibration: drift times and TWCCSN2 of calibrant protein ions; type: physicochemical; settings: drift gas nitrogen, repeat determinations printed as separate rows; for dt exp.: in ms; for TWCCSN2: in Å2
Description: Supplement 41598_2025_28101_MOESM1_ESM.docx, table 25: Table S18: Drift times, experimentally determined CCS, and literature references of calibrant proteins. | column: CCS determinations ^a); CCS from literature ^a)

[4] = drift gas nitrogen, in Å2, cited from earlier work
Description: Supplement 41598_2025_28101_MOESM1_ESM.docx, table 25: Table S18: Drift times, experimentally determined CCS, and literature references of calibrant proteins. | column: CCS from literature ^a)

[5] = Boltzmann curve parameter, 5+ trimer ion, mean of two measurement series, Table S8
[6] = collision cell voltage difference at half dissociation of 5+ trimer ion, Boltzmann fit
[7] = calibrant ion z = 5, ion at m/z 2473.12
[8] = calibrant ion z = 5, ion at m/z 2473.14

Row | Substance | ΔCV50 [1, 5] | k#m0g (apparent kinetic constant of trimer dissociation) ([1]; 5+ trimer ion) | TambΔS#m0g ([1]; 5+ trimer ion) [kcal/mol] | ΔG#m0g (pseudo thermodynamic activation free energy of trimer dissociation) ([1]; 5+ trimer ion) [kcal/mol] | ΔH#m0g (activation enthalpy of trimer dissociation) ([1]; 5+ trimer ion) [kcal/mol] | TWCCSN2 exp. (mean) [2] [Å^2] | dt (mean) [2] [ms] | FWHM [2] [ms] | other results
1 | H-Dip^2IPEAPRDala^10QAYVRKphe^17GEWVLLSTFL-NH2 [foldon 6, T4Ff variant without Gly1, Dip at position 2] | 13.42 | 3.47 × 10^8 | 10.1 | 5.88 | 16 | 1177 | 11.3 | 1.5 | ΔCV50 [1, 6]: 13.4 V
2 | H-Gly^1Tyr^2IPEAPRDGly^10QAYVRKAsp^17GEWVLLSTFL-OH [foldon 0, original T4 Fibritin foldon mini-protein of 27 amino acids, purchased, forms homo-trimers, reference compound] | 13.51 | 3.61 × 10^8 | 9.56 | 5.71 | 15.3 | 1160 | 10.8 | 1.9 | ΔCV50 [1, 6]: 13.5 V
3 | H-Gly^1Tyr^2IPEAPRDala^10QAYVRKphe^17GEWVLLSTFL-NH2 [foldon 1, T4Ff variant with D-Ala10, D-Phe17 and C-terminal carboxamide] | 11.04 | 6.61 × 10^9 | 8.44 | 3.94 | 12.4 | 1172 | 11.1 | 1.5 | ΔCV50 [1, 6]: 11.0 V
4 | H-Gly^1tyr^2IPEAPRDala^10QAYVRKphe^17GEWVLLSTFL-NH2 [foldon 2] | – | 3.60 × 10^9 | 9.03 | 4.42 | 13.5 | 1169 | 11.0 | 1.5 | –
5 | H-Nal^2IPEAPRDala^10QAYVRKphe^17GEWVLLSTFL-NH2 [foldon 5, T4Ff variant without Gly1, Nal at position 2] | 12.25 | 1.22 × 10^9 | 9.56 | 5.04 | 14.6 | 1169 | 11.0 | 0.8 | –
6 | H-Tyr^2IPEAPRDala^10QAYVRKphe^17GEWVLLSTFL-NH2 [foldon 3] | 11.63 | 2.64 × 10^9 | 8.99 | 4.57 | 13.6 | 1164 | 10.9 | 1.2 | –
7 | H-tyr^2IPEAPRDala^10QAYVRKphe^17GEWVLLSTFL-NH2 [foldon 4, T4Ff variant without Gly1, D-Tyr at position 2] | 12.26 | 1.17 × 10^9 | 9.27 | 5.07 | 14.3 | 1164 | 10.9 | 1.6 | –
8 | cytochrome c | – | – | – | – | – | – | – | – | dt exp. [3, 7]: 12.03; dt exp. [3, 8]: 11.89; TWCCSN2 [3, 7]: 1204; TWCCSN2 [3, 8]: 1199; dt exp. ([3]; calibrant ion z = 8): 10.23 and 10.37; TWCCSN2 ([3]; calibrant ion z = 8): 1827 and 1835; CCS from literature, CCS exp. ([4]; calibrant ion z = 5): 1146; CCS from literature, CCS exp. ([4]; calibrant ion z = 6, two literature values): 1477 and 1490; CCS from literature, CCS exp. ([4]; calibrant ion z = 7): 1590
9 | insulin | – | – | – | – | – | – | – | – | dt exp. ([3]; calibrant ion z = 3): 12.3 and 12.44; TWCCSN2 ([3]; calibrant ion z = 3): 729 and 732; dt exp. ([3]; calibrant ion z = 4): 8.43 and 8.57; TWCCSN2 ([3]; calibrant ion z = 4): 865 and 868; dt exp. ([3]; calibrant ion z = 5): 7.19; TWCCSN2 ([3]; calibrant ion z = 5): 1038
10 | serum albumin | – | – | – | – | – | – | – | – | dt exp. ([3]; calibrant ion z = 15): 18.80; TWCCSN2 ([3]; calibrant ion z = 15): 4310; CCS from literature, CCS exp. ([4]; calibrant ion z = 15): 4490; CCS from literature, CCS exp. ([4]; calibrant ion z = 16): 4470; CCS from literature, CCS exp. ([4]; calibrant ion z = 17): 4490
11 | ubiquitin | – | – | – | – | – | – | – | – | dt exp. ([3]; calibrant ion z = 4): 11.75; TWCCSN2 ([3]; calibrant ion z = 4): 956; CCS from literature, CCS exp. ([4]; calibrant ion z = 4): 949; CCS from literature, CCS exp. ([4]; calibrant ion z = 5): 1011

From paper PMC12644675, “The mass spectrometric intact transition epitope mapping method supports protein engineering of foldon trimer variants” (Scientific Reports, 2025)
